Reference: US11541029B2, “High penetration compositions and their applications” (Techfields Pharma Co., Ltd., priority 2008, dated 2023)
Read-outs that look alike come from different tables or passages of the source. Values belong to the molecule of their own block, whether it stands above or below them.

Tests used:
[1] = In vitro penetration rate through human skin, Franz cells; format: in vitro ADME
Protocol: Penetration rates of HPCs through human skin were measured in vitro by Franz cells. A Franz cell has two chambers, a top sample chamber and a bottom receptor chamber.
Test compounds were diethylaminoethyl N-acetyl-3-(3,4-diacetyloxy-phenyl-L-alanine ester.HCl salt (A), diethylaminopropyl N-acetyl-D-3,5,3′,5′-tetraiodothyronine.HCl salt(B), 1-piperidineethyl 2-[4-(4-chlorobenzoyl)phenoxy]-2-methyl-propinate. HCl salt(C), 3-piperidinemethyl 5-(2,5-dimethylphenoxy)-2,2-dimethylpentanoate.HCl salt(D), diethylaminoethyl (S)-3-(benzoylaminomethyl)-5-methylhexanoate.HCl salt(E), N-acetyl-3-(3,4-diacetyloxy-phenyl-L-alanine(F) sodium salt, N-acetyl-D-3,5,3′,5′-tetraiodothyronine sodium salt(G), 2-[4-(4-chlorobenzoyl)phenoxy]-2-methyl-propinic acid sodium salt(H), 5-(2,5-dimethylphenoxy)-2,2-dimethylpentanoic acid sodium salt(I), and (S)-3-(benzoylaminomethyl)-5-methylhexanoic acid sodium salt(J).
10% solution of the test compound in water was used. The amount of a HPC or its parent drug penetrating a skin was determined by high-performance liquid chromatography method. The results were shown in FIG. 8 and apparent flux values of the HPCs and their corresponding parent drugs were summarized in Table 2.

[2] = tested on: lesions similar to psoriasis generated by Malassezia; test: Anti-psoriasis activity, Malassezia-induced lesions; format: in vivo, Chinese white rabbits; conditions: HPC 5% aq. applied to the lesion areas twice per day
Protocol: Heavy suspensions of Malassezia [Rosenberg, E. W., et al., Mycopathologia, 72, 147-154 (1980)] were applied to the shaved skin on the backs of Chinese white rabbits (n=4×6) twice (at […]) per day for 2 weeks to generate lesions similar to psoriasis. HPCs (5%, aq.) were applied to the same areas 3 hours (10 am and 6 pm) after the application of Malassezia (7 am and 3 pm). […] HCl, diethylaminoethyl 1,8-diethyl-1,3,4,9-tetrahydropyrano-[3,4-b]indole-1-acetate.HCl, diethylaminoethyl 2-amino-3-(4-bromo-benzoyl)benzeneacetate.HCl, diethylaminoethyl 3-chloro-4-(2-propenyloxy)benzeneacetate. HCl, diethylaminoethyl 1-(4-chlorobenzoyl-5-methoxy-2-methyl-1H-indole-3-acetoxyacetate. HCl, diethylaminoethyl 4-(4-chlorophenyl)-2-phenyl-5-thiazoleacetate.HCl, and diethylaminoethyl 3-(4-chlorophenyl)-1-phenyl-1H-pyrazole-4-acetate.HCl

[3] = tested on: SLAC:NOD-IDDM, type 1 diabetes; test: Anti-diabetes (type I) activity of HPCs of NSAIAs; format: in vivo, mice
Source text: 10% aqueous solution of diethylaminoethyl acetylsalicylate.acetylsalicylic acid salt (P-1, […]); 4-acetamidophenyl salicylyldimethylaminobutyrate. HCl (P-6), diethylaminoethyl 5-(2,4-difluorophenyl)acetylsalicylate.5-(2,4-difluorophenyl)acetylsalicylic acid salt (P-8), diethylaminoethyl salicylsalicylate.AcOH(P-9), diethylaminoethyl 5-acetamido-acetylsalicylate. HCl (P-58), diethylaminoethyl 2-(ρ-isobutylphenyl) propionate.citric acid (P-59), diethylaminoethyl acetylsalicylsalicylate. acetylsalicylsalicylsalicylic acid salt (P-60) (equal to of 20 mg/kg of NSAIAs) were administered transdermally to the shaved back (about 1.5 cm^2) of mice twice per day (at 8 am and 5 pm) for 7 weeks.
The blood glucose levels were measured once every 3 days at 4:30 pm (no fasting) from the fourth week to the seventh week as shown in Table 11.

[4] = tested on: GK rats (SLAC/GK, type 2 diabetes); test: Anti-diabetes (type II) activity of HPCs of NSAIAs in GK rats; format: in vivo; conditions: 30 mg/kg transdermally once per day, no fasting
Protocol: (§1) A HPC in the present disclosure lowered blood glucose levels in rat models (SLAC/GK, type 2 diabetes, n=7). 30 mg/kg of 8% diethylaminoethyl acetylsalicylate.HCl salt (P-1, in 25% ethanol); 4-acetamidophenyl salicylyldimethylaminobutyrate.HCl (P-6, in 25% ethanol), diethylaminoethyl 5-(2,4-difluorophenyl)acetylsalicylate.5-(2,4-difluorophenyl)acetylsalicylic acid salt (P-8, in 25% ethanol), diethylaminoethyl salicylsalicylate.HCl salt (P-9, in 25% ethanol), diethylaminoethyl salicylate.AcOH(P-10, in 25% ethanol), diethylaminoethyl 5-acetamido-acetylsalicylate.HCl(P-58, in 25% ethanol), diethylaminoethyl acetylsalicylsalicylate. HCl salt (P-59, in 25% ethanol), diethylaminoethyl acetylsalicylsalicylsalicylate. HCl salt (P-60, in 25% ethanol) were administered transdermally to the backs (6 cm^2, fur was shaved) of GK rats (SLAC/GK, 14-16 weeks old) and normal SD rats (SLAC/SD, 14-16 weeks old) once per day (at 8 am) for 6 weeks.
(§2) The blood glucose levels were measured once every 3 days at 4:30 pm (no fasting) from the third week to the sixth week as shown in Table 10a and 10b. […] Moreover, the blood glucose levels of the rats stayed at normal level (6-9 mmol/L, no fasting) after the treatment was stopped for 40 days.

[5] = tested on: SLAC/DB/DB obese mice; test: Blood glucose and blood lipid levels in DB/DB mice; format: in vivo; conditions: 30 mg/kg transdermally once per day
Protocol: HPCs in the present disclosure lowered blood glucose levels and blood lipid levels in mice models (SLAC/DB/DB, obese mice, n=7). 30 mg/kg of 8% diethylaminoethyl acetylsalicylate.HCl salt (P-1, in 25% ethanol); 4-acetamidophenyl salicylyldimethylaminobutyrate.HCl (P-6, in 25% ethanol), diethylaminoethyl 5-(2,4-difluorophenyl)acetylsalicylate.5-(2,4-difluorophenyl)acetylsalicylic acid salt (P-8, in 25% ethanol), diethylaminoethyl salicylsalicylate.HCl salt (P-9, in 25% ethanol), diethylaminoethyl salicylate.AcOH(P-10, in 25% ethanol), diethylaminoethyl 5-acetamido-acetylsalicylate.HCl(P-58, in 25% ethanol), diethylaminoethyl acetylsalicylsalicylate.HCl salt (P-59, in 25% ethanol), diethylaminoethyl acetylsalicylsalicylsalicylate.HCl salt (P-60, in 25% ethanol) were administered transdermally to the backs (4 cm^2,fur was shaved) of DB/DB mice(SLAC/DB/DB, 10-12 weeks old) once per day (at 8 am) for 5 weeks. The blood glucose levels were measured once per week and blood lipid levels were measured once every other week.

[6] = tested on: normal SD rats (SLAC/SD); test: Blood glucose in normal SD rats treated with HPCs of NSAIAs; format: in vivo; conditions: 30 mg/kg transdermally once per day, no fasting
Protocol: as §1, §2

[7] = 10% solution in water, human skin 360-400 μm, Franz cells

SMILES: C=CCOc1ccc(CC(=O)OCCN(CC)CC)cc1Cl.Cl [diethylaminoethyl 3-chloro-4-(2-propenyloxy)benzeneacetate. HCl]
time until lesions healed after the application [2]: 10 days

SMILES: CCN(CC)CCOC(=O)C[C@@H](CNC(=O)c1ccccc1)CC(C)C.Cl [diethylaminoethyl (S)-3-(benzoylaminomethyl)-5-methylhexanoate.HCl salt]
apparent flux (in vitro penetration rate) [1, 7]: 650 μg/cm^2/h

SMILES: CCN(CC)CCOC(=O)COC(=O)Cc1c(C)n(C(=O)c2ccc(Cl)cc2)c2ccc(OC)cc12.Cl [diethylaminoethyl 1-(4-chlorobenzoyl-5-methoxy-2-methyl-1H-indole-3-acetoxyacetate. HCl]
time until lesions healed after the application [2]: 10 days

SMILES: CCN(CC)CCOC(=O)Cc1sc(-c2ccccc2)nc1-c1ccc(Cl)cc1.Cl [diethylaminoethyl 4-(4-chlorophenyl)-2-phenyl-5-thiazoleacetate.HCl]
time until lesions healed after the application [2]: 10 days

SMILES: CC(C)C[C@H](CNC(=O)c1ccccc1)CC(=O)[O-].[Na+] [(S)-3-(benzoylaminomethyl)-5-methylhexanoic acid sodium salt, reference compound]
apparent flux (in vitro penetration rate) [1, 7]: 1 μg/cm^2/h

SMILES: CCN(CC)CCOC(=O)Cc1cc(C)c(C(=O)c2ccc(Cl)cc2)n1C.Cl [diethylaminoethyl 5-(4-Chlorobenzoyl)-1,4-dimethyl-1H-pyrrole-2-acetate. HCl]
time until lesions healed after the application [2]: 10 days

SMILES: CCN(CC)CCOC(=O)c1ccccc1OC(=O)c1ccccc1O.Cl [P-9, diethylaminoethyl salicylsalicylate.HCl salt]
blood glucose, Baseline ([3]; equal to 20 mg/kg of NSAIAs transdermally twice per day for 7 weeks): 16.5 ± 3.6 mmol/L
blood glucose, Average ([3]; fourth week to seventh week, no fasting, equal to 20 mg/kg of NSAIAs transdermally twice per day): 8.4 ± 1.9 mmol/L
blood glucose, Average (Week 2-5) [4]: 9.4 ± 2.7 mmol/L
blood glucose, Day 1 [4]: 16.4 ± 2.3 mmol/L
Cholesterol (total), Day 1 [5]: 7.7 ± 0.5 mmol/L
Cholesterol (total), Week 5 [5]: 4.9 ± 0.5 mmol/L
Triglycerides, Day 1 [5]: 4.1 ± 0.4 mmol/L
Triglycerides, Week 5 [5]: 2.1 ± 0.3 mmol/L
blood glucose, Day 1 [5]: 14.1 ± 2.5 mmol/L
blood glucose, Week 5 [5]: 8.7 ± 2.3 mmol/L
blood glucose, Average (Week 2-5) [6]: 5.6 ± 1.2 mmol/L
blood glucose, Day 1 [6]: 5.5 ± 1.3 mmol/L

Next, values leading:

apparent flux (in vitro penetration rate) [1]: 1 μg/cm^2/h
SMILES: CC(C)(Oc1ccc(C(=O)c2ccc(Cl)cc2)cc1)C(=O)[O-].[Na+] [2-[4-(4-chlorobenzoyl)phenoxy]-2-methyl-propinic acid sodium salt, reference compound]

apparent flux (in vitro penetration rate) ([1]; human, 10 % solution in water): 1 μg/cm^2/h
SMILES: Cc1ccc(C)c(OCCCC(C)(C)C(=O)[O-])c1.[Na+] [5-(2,5-dimethylphenoxy)-2,2-dimethylpentanoic acid sodium salt, reference compound]

apparent flux (in vitro penetration rate) [1]: 1 μg/cm^2/h
SMILES: CC(=O)N[C@@H](Cc1ccc(OC(C)=O)c(OC(C)=O)c1)C(=O)[O-].[Na+] [N-acetyl-3-(3,4-diacetyloxy-phenyl-L-alaninesodium salt, reference compound]

apparent flux (in vitro penetration rate) [1]: 400 μg/cm^2/h
SMILES: Cc1ccc(C)c(OCCCC(C)(C)C(=O)OCC2CCCNC2)c1.Cl (centres unmarked) [3-piperidinemethyl 5-(2,5-dimethylphenoxy)-2,2-dimethylpentanoate.HCl salt]

apparent flux (in vitro penetration rate) ([1]; human, 10 % solution in water): 1 μg/cm^2/h
SMILES: CC(=O)N[C@H](Cc1cc(I)c(Oc2cc(I)c(O)c(I)c2)c(I)c1)C(=O)[O-].[Na+] [N-acetyl-D-3,5,3′,5′-tetraiodothyronine sodium salt, reference compound]

apparent flux (in vitro penetration rate) [1]: 480 μg/cm^2/h
SMILES: CCN(CC)CCCOC(=O)[C@@H](Cc1cc(I)c(Oc2cc(I)c(O)c(I)c2)c(I)c1)NC(C)=O.Cl [diethylaminopropyl N-acetyl-D-3,5,3′,5′-tetraiodothyronine.HCl salt]

apparent flux (in vitro penetration rate) [1]: 590 μg/cm^2/h
SMILES: CC(C)(Oc1ccc(C(=O)c2ccc(Cl)cc2)cc1)C(=O)OCCN1CCCCC1.Cl [1-piperidineethyl 2-[4-(4-chlorobenzoyl)phenoxy]-2-methyl-propinate. HCl salt]

apparent flux (in vitro penetration rate) [1]: 550 μg/cm^2/h
SMILES: CCN(CC)CCOC(=O)[C@H](Cc1ccc(OC(C)=O)c(OC(C)=O)c1)NC(C)=O.Cl [diethylaminoethyl N-acetyl-3-(3,4-diacetyloxy-phenyl-L-alanine ester.HCl salt]
